Experimental data taken from PubChem BioAssay AID1159564 (GlaxoSmithKline (GSK), 2015).
Activity calls are given as the source filed them. The rule behind the calls is not given here.

Tested on: L. donovani-infected THP-1 macrophages, intracellular amastigote imaging
Experiment: antileishmanial activity in infected THP-1 macrophages – imaging, THP-1 host macrophages, host toxicity (AID 1159564)
[1] = measured here: THP-1 host cell toxicity
[2] = measured here: amastigotes per macrophage

Row | Compound | IC50 | IC50 [1] | IC50 [2]
1 | CC1CCCCN1C(=O)NCCc1coc(-c2ccc(F)cc2)n1 (stereo not given) | > 50 µM (inactive) | > 50 µM | > 50 µM
2 | O=C1CN(C(=O)c2cccc(Nc3ncc(-c4ccc5c(c4)OCO5)cn3)c2)CCN1 | 5 µM | 63 µM | 2 µM
3 | COCc1cc(Nc2cccc(Cl)c2)nc(-c2ccccn2)n1 | 1.6 µM | > 50 µM | 0.63 µM
4 | CCN(CC)c1ccc(S(=O)(=O)N(CC)CC)c2nonc12 | 0.4 µM | 16 µM | 0.13 µM
5 | COc1cc(Cl)c(C)cc1NC(=O)c1ccc([N+](=O)[O-])s1 | 6.3 µM | > 50 µM | 5 µM
6 | CN(CCOc1ccc(Cl)cc1)Cc1nc(N)nc(N(C)C)n1 | 7.9 µM | > 50 µM | 5 µM
7 | O=c1[nH]cnc2c([C@@H]3O[C@H](CO)[C@@H](O)[C@H]3O)[nH]nc12 | 2 µM | > 50 µM | 0.4 µM
8 | Cc1cc(NC(=O)C2CC2)ccc1OC1CCN(Cc2ccco2)CC1 | 20 µM | 13 µM | 13 µM
9 | Cc1nn(-c2nc(N)nc(-c3ccccn3)n2)c(N)c1-c1ccccc1 | 3.2 µM | 20 µM | 2 µM
10 | C=CCOCC1Cn2nc([N+](=O)[O-])nc2O1 (stereo not given) | > 50 µM (inactive) | > 50 µM | > 50 µM
11 | CC1CN(Cc2ccc(C#N)cc2)CCN1c1ccc(NC(=O)c2ccccc2F)cc1 (stereo not given) | 10 µM | > 50 µM | 5 µM
12 | NCC(Cc1ccccc1)NC(=O)c1cnc(-c2c[nH]c3ncccc23)s1 (stereo not given) | 16 µM | 6.3 µM | 13 µM
13 | Cc1cc(Oc2cc(Cl)c(Cl)cc2Cl)n2ncnc2n1 | 16 µM | 10 µM | 13 µM
14 | Cc1ccnc(NS(=O)(=O)c2ccc(NC(=O)c3ccc([N+](=O)[O-])s3)cc2)n1 | 10 µM | 10 µM | 5 µM
15 | OC[C@@H](Nc1nccc(-c2c(-c3ccc(F)cc3)ncn2C2CCNCC2)n1)c1ccccc1 | 32 µM | 32 µM | 32 µM
16 | N#Cc1cccc(CN2CCC(c3nc(-c4ccc(C(F)(F)F)nc4)no3)CC2)c1 | > 50 µM (inactive) | > 50 µM | > 50 µM
17 | N#Cc1nc(C=Cc2ccccc2)oc1NCc1cccnc1 | 40 µM | 32 µM | 32 µM
18 | Cc1cccnc1NC(=O)c1cccc(OCc2c(C)noc2C)c1 | 20 µM | 6.3 µM | 10 µM
19 | CN(CC1CCCO1)S(=O)(=O)c1ccc(C(=O)Nc2nc(-c3ccccn3)cs2)cc1 (stereo not given) | 6.3 µM | 7.9 µM | 3.2 µM
20 | Cc1nc2c(-c3n[nH]c(-c4ccccc4N)n3)cccn2c1C | 1.6 µM | 7.9 µM | 1 µM
21 | O=C(COc1nn(-c2ccccc2)c2ncccc12)NCc1ccccc1 | 0.32 µM | > 50 µM | 0.079 µM
22 | CCOc1ccc(OCC(=O)N2c3ccccc3CC2C(=O)NC)cc1 (stereo not given) | > 50 µM (inactive) | > 50 µM | > 50 µM
23 | O=C(NCCc1csc(-c2cccc(F)c2)n1)c1ccco1 | > 50 µM (inactive) | > 50 µM | > 50 µM
24 | CNS(=O)(=O)c1ccccc1Nc1nc(Nc2ccnn2C)ncc1Cl | 0.63 µM | 0.32 µM | 0.4 µM

Row | Compound | IC50 | IC50 [1] | IC50 [2]
25 | COc1ccc(Cl)cc1CC(=O)Nc1n[nH]c(-c2ccccn2)n1 | 6.3 µM | > 50 µM | 5 µM
26 | N#Cc1cc(N2CCCC2=O)ccc1Sc1ccccc1CO | > 50 µM (inactive) | > 50 µM | > 50 µM
27 | Cc1nc(C(=O)Nc2ccc3c(c2)OCO3)nn1-c1ccc(Cl)cc1 | 2 µM | 13 µM | 1.6 µM
28 | COc1cc(-c2noc(CC#N)n2)ccc1OC(F)F | > 50 µM (inactive) | 50 µM | > 50 µM
29 | CC(=O)Nc1ccc(-c2ccnc(Nc3cccc(C#N)c3)n2)cc1 | 16 µM | 10 µM | 10 µM
30 | CC(C)(C)C(O)(CCc1ccc(Cl)cc1)Cn1cncn1 (stereo not given) | > 50 µM (inactive) | > 50 µM | > 50 µM
31 | COc1ccccc1C(=O)Nc1nnc(-c2ccc3c(c2)OCO3)s1 | 1 µM | 16 µM | 0.63 µM
32 | N#Cc1ccccc1S(=O)(=O)N1CCN(C(=O)CNC(=O)c2ccc3c(c2)OCO3)CC1 | 5 µM | > 50 µM | 1.6 µM
33 | Oc1c(-c2n[nH]c(Cc3ccc(Cl)cc3)n2)ncc2cccnc12 | 1.3 µM | 20 µM | 1 µM
34 | Cn1nccc1NC(=O)Cn1ccc(-c2ccncc2)n1 | > 50 µM (inactive) | > 50 µM | > 50 µM
35 | O=C1c2cnc(N3CCCC3)nc2CN1c1ccc2c(c1)OCO2 | 10 µM | > 50 µM | 6.3 µM
36 | O=C(c1cccc(Cl)c1Cl)N1CCn2c1nc(-c1ccncc1)cc2=O | > 50 µM (inactive) | > 50 µM | 32 µM
37 | CS(=O)(=O)c1cccc(CNC(=O)c2cncc(N3CCN(c4ccc(F)cc4)CC3)c2)c1 | > 50 µM (inactive) | > 50 µM | > 50 µM
38 | COc1ccc(-c2cnc(C)o2)cc1S(=O)(=O)Nc1ccc(C)cc1C | 3.2 µM | > 50 µM | 2.5 µM
39 | O=C(c1ccccc1)N1CCC(C(=O)N2CCC(Oc3ccccc3Cl)CC2)CC1 | > 50 µM (inactive) | > 50 µM | 32 µM
40 | Cc1[nH]nc(Nc2ccnc3[nH]ccc23)c1C | > 50 µM (inactive) | > 50 µM | > 50 µM
41 | O=C(NCCc1cccnc1)c1csc(-c2ccccc2)n1 | > 50 µM (inactive) | > 50 µM | > 50 µM
42 | Cc1cc(=O)n2nc(Oc3ccc(C#N)cc3Cl)sc2n1 | 32 µM | 32 µM | 32 µM
43 | CC(CNS(=O)(=O)c1ccc(OC(F)F)cc1)c1ccc(NC(=O)c2ccncc2)cc1 (stereo not given) | > 50 µM (inactive) | 16 µM | 5 µM
44 | CCc1nn(-c2ncc(F)c(NC(C)C)n2)c(N)c1C1CCCCC1 | 3.2 µM | 16 µM | 1.6 µM
45 | O=C(NCc1ccc(Cl)cc1)C1CN(C(=O)c2ccc(F)cc2)CCS1 (stereo not given) | > 50 µM (inactive) | > 50 µM | > 50 µM
46 | CC(C)n1c(-c2nonc2N)nc2cccc(OCCN3CCCC3)c21 | 32 µM | 32 µM | 20 µM
47 | COc1ccc(C)cc1-c1csc(NC(=O)C(C)n2ccnc2)n1 (stereo not given) | > 50 µM (inactive) | > 50 µM | > 50 µM
48 | CCc1cccc(-n2nc(OCC(=O)NC3CCCC3)c3cccnc32)c1 | 1 µM | < 50 µM | 1.3 µM

Row | Compound | IC50 | IC50 [1] | IC50 [2]
49 | COc1cccc(Nc2cc(C)nc(-c3ccccn3)n2)c1 | 2 µM | > 50 µM | 1.3 µM
50 | CC(=O)Nc1nc(-c2cc(C)ccc2C)c(C)s1 | > 50 µM (inactive) | > 50 µM | 32 µM
51 | CN(C)Cc1ccc(N2CCC(NS(=O)(=O)c3ccc(Cl)cc3)CC2)cc1 | > 50 µM (inactive) | 25 µM | 25 µM
52 | O=C(Nc1ncc([N+](=O)[O-])s1)C1CC1 | > 50 µM (inactive) | > 50 µM | > 50 µM
53 | CS(=O)(=O)NC1CCC(Nc2ncc(Br)c(Nc3ccccc3C(N)=O)n2)CC1 (stereo not given) | 2 µM | 0.5 µM | 0.79 µM
54 | O=C(Cc1ccc2c(c1)CCC2)Nc1n[nH]c(-c2ccccn2)n1 | 6.3 µM | > 50 µM | 6.3 µM
55 | COc1ccc(S(=O)(=O)Nc2ccc(C(=O)Nc3nc(-c4ccccn4)cs3)cc2)cc1 | 0.4 µM | 10 µM | 0.16 µM
56 | O=C(NCC(c1cccnc1)N1CCc2ccccc2C1)C(=O)Nc1cccc(Cl)c1 (stereo not given) | > 50 µM (inactive) | > 50 µM | > 50 µM
57 | O=C(Nc1ccc(C(=O)N2CCCC2c2ccc3c(c2)OCCCO3)cc1)c1ccco1 (stereo not given) | 6.3 µM | > 50 µM | 3.2 µM
58 | CS(=O)(=O)NC1CCC(Oc2cc3cnccc3cc2-c2ccsc2)CC1 (stereo not given) | 50 µM | 16 µM | 20 µM
59 | Cc1ccc(S(=O)(=O)Nc2ccc(CN3CCN(C(=O)c4cccc(C#N)c4)CC3)cc2)cc1 | > 50 µM (inactive) | > 50 µM | 25 µM
60 | Cc1ccc(Nc2nc(N)nc(CNC(c3nc4ccccc4[nH]3)C(C)C)n2)cc1 (stereo not given) | 2 µM | 25 µM | 1.3 µM
61 | O=c1[nH]ccc2ccc(-c3ccncc3)cc12 | > 50 µM (inactive) | 40 µM | 20 µM
62 | O=C(NCc1nnc2n1CCCCC2)c1ccc(-c2ccc(F)cc2)o1 | > 50 µM (inactive) | > 50 µM | > 50 µM
63 | c1cc(-c2ncc(-c3ccn[nH]3)s2)ccn1 | > 50 µM (inactive) | > 50 µM | 10 µM
64 | Cc1cc(Br)cc(C(=O)c2c(C(C)C)c(=O)[nH]c(=O)n2Cc2ccnc(N)c2)c1 | 32 µM | 40 µM | 20 µM
65 | O=C(NCCc1nc(-c2ccc(F)c(F)c2)n[nH]1)C1CCCCC1 | > 50 µM (inactive) | 20 µM | 16 µM
66 | CNc1cncc(C2CCCN2C(=O)Cc2coc3cc(C)ccc23)n1 (stereo not given) | > 50 µM (inactive) | > 50 µM | 0.79 µM
67 | COc1ccccc1-n1c(SCC(=O)Nc2ccc3c(c2)OCO3)nc2c(c1=O)SCC2 | 7.9 µM | > 50 µM | 5 µM
68 | CNC(=O)C1Cc2ccccc2N1C(=O)Cc1ccc(OC)cc1 (stereo not given) | 7.9 µM | 7.9 µM | 13 µM
69 | Nc1nc(-c2ccccn2)nc(N)c1Cc1c(F)cccc1Cl | 1.3 µM | 32 µM | 1 µM
70 | O=S(=O)(NCC(c1cccnc1)N1CCN(c2ccc(F)cc2)CC1)c1cccs1 (stereo not given) | > 50 µM (inactive) | > 50 µM | > 50 µM
